Laboratory results taken from US7037939B2, “Compound and derivative of gabapentin” (Industrial Technology Research Institue, priority 2002, dated 2006).

How the values were obtained:
Caco-2 cell = test: Caco-2 monolayer cell transmission rate (in vitro intestinal absorption model); format: in vitro ADME, human
From the text: The common use of the activity selection model for the in vitro intestinal absorption comprises: (1) Carcinoms (Caco-2); (2) Using Chamber; (3) Everted Gut Sac. Basically, there is no difference for those three drug-activity-selection models when they are used for evaluating the activity selection. However, in terms of the cell source from human, a cell line is predominant. Moreover, with the cellular metabolism being similar to human intestines, Caco-2 becomes an excellent tool in the study of intestine absorption. Therefore, in the comparison of the in vitro transmission rate between gabapentin and gabapentin derivatives, the Caco-2 system is still the favorable model.
The research for studying gabapentin and the derivatives thereof in the present invention includes: Caco-2 cell activation, Caco-2 monolayer cell cultivation, resistance value measurement, effect of time to gabapentin transmission rate, and comparison of transmission rate between gabapentin and gabapentin derivatives. In constructing the Caco-2 monolayer, the original cell line is the human colon adenocarcinoma cell (Caco-2), and its data sheet is listed as Table 2.
The Caco-2 cell is activated appropriately, and seeded in the transwell at 37° C. in an amount of about 1×10^5. The aliquot is cultivated in 5% CO2 at 37° C. and replaced with a fresh medium every 3 to 4 days, and then the monolayer cell is obtained by the 21 days cultivation. The integrity of the Caco-2 cell is further characterized by tissue section and resistance value measurement.
HPLC Analysis: Intersil ODS-3V 250*4.6 mm column, Solvent: MeOH/H2O=10:90 to 70:30 with 0.1% of NH4OAc, Flow rate=1.0 ml/min, ELSD: Evaporative Light Scattering Detector. Every derivative has been repeated for 3 times in analysis, 4 hr later, the sample is analyzed for the transmission rate and then averaged to account its transmission fold.

[1] = Oral drug absorption test in rats: gabapentin concentration in blood/serum by LC/MS/MS; format: in vivo, rat; conditions: 300 mg/kg, ratio of AUC to Gabapentin HCl
Method: Rats (3 male, Winstar rats) are fed with 300 mg/kg dosage of compounds. Plural blood samples are collected at different times (0, 0.5, 1, 2, 3, 8, 12, 24 hrs). The blood samples are centrifuged, and the concentration of gabapentin in the serum are analyzed with LC/MS/MS (MRM method, limitation of instruments 0.005 μg/mL).
After reducing the dosage, compounds of gabapentin prodrugs were selected for further pharmacodynamic analysis. The rats are fed with 50 mg/kg dosage of gabapentin equivalency individually.

[2] = Caco-2 monolayer, 4 h, mean of 3 repeats, HPLC-ELSD
[3] = ratio of Caco-2 transmission rate to GBP.HCl, 4 h

Row | SMILES | Caco-2 Cell Mean Total Transmission rate 4 h (%) (Caco-2 cell; human, Caco-2, 4 h) | gbp-prodrug/gbp Transmission Fold (Caco-2 cell; human, Caco-2, 4 h) | AUC value relative to Gabapentin HCl [1] | Caco-2 Cell Mean Total Transmission rate 4 h (%) (Caco-2 cell; [2]) | gbp-prodrug/gbp Transmission Fold (Caco-2 cell; [3])
1 | CCOC(=O)CC1(CNC(=O)CC2(CN)CCCCC2)CCCCC1 [Embodiment 2, (1-{[2-(1-Aminomethyl-cyclohexyl)-acetylamino]-methyl}-cyclohexyl)-acetic acid ethyl ester] | 10.25% | 9.3 Fold | 14.9 times | – | –
2 | CCOC(=O)CC1(CNC(=O)C(N)c2ccccc2)CCCCC1 (stereo not drawn) [Embodiment 30, {1-[(2-Amino-2-phenyl-acetylamino)-methyl]-cyclohexyl}-acetic acid ethyl ester] | 11.87% | 10.8 Fold | – | – | –
3 | CCOC(=O)CC1(CNC(=O)C(N)CCc2ccccc2)CCCCC1 (stereo not drawn) [Embodiment 31, {1-[(2-Amino-4-phenyl-butyrylamino)-methyl]-cyclohexyl}-acetic acid ethyl ester] | 12.30% | 11.2 Fold | – | – | –
4 | CCOC(=O)CC1(CNC(=O)C(N)CCc2ccccc2)CCCCC1 (stereo not drawn) [Embodiment 32, {1-[(2-Amino-4-phenyl-butyrylamino)-methyl]-cyclohexyl}-acetic acid ethyl ester] | 1.76% | 1.6 Fold | – | – | –
5 | CCOC(=O)CC1(CNC(=O)C(N)c2cc3ccccc3[nH]2)CCCCC1 (stereo not drawn) [Embodiment 33, (1-{[2-Amino-2-(1H-indol-2-yl)-acetylamino]-methyl}-cyclohexyl)-acetic acid ethyl ester] | – | – | – | 9.97% | 9.1 Fold
6 | CCOC(=O)CC1(CNC(=O)C2CSCN2)CCCCC1 (stereo not drawn) [Embodiment 34, (1-{[(Thiazolidine-4-carbonyl)-amino]-methyl}-cyclohexyl)-acetic acid ethyl ester] | 4.50% | 4.1 Fold | – | – | –
7 | CCOC(=O)CC1(CNC(=O)C(N)c2ccc(O)cc2)CCCCC1 (stereo not drawn) [Embodiment 35, (1-{[2-Amino-2-(4-hydroxy-phenyl)-acetylamino]-methyl}-cyclohexyl)-acetic acid ethyl ester] | 10.33% | 9.4 Fold | – | – | –
8 | CCOC(=O)CC1(CNC(=O)CCNC(=O)c2cccnc2)CCCCC1 [Embodiment 36, [1-({3-[(Pyridine-3-carbonyl)-amino]-propionylamino}-methyl)-cyclohexyl]-acetic acid ethyl ester] | – | – | – | 9.00% | 8.2 Fold
9 | CCOC(=O)CC1(CNC(=O)C2CSCN2C(=O)OC(C)(C)C)CCCCC1 (stereo not drawn) [Embodiment 37, 4-[(1-Ethoxycarbonylmethyl-cyclohexylmethyl)-carbamoyl]-thiazolidine-3-carboxylic acid tert-butyl ester] | – | – | – | 6.13% | 5.6 Fold
10 | CCOC(=O)CC1(CNC(=O)C(NC(=O)OC(C)(C)C)c2ccc(O)cc2)CCCCC1 (stereo not drawn) [Embodiment 38, (1-{[2-tert-Butoxycarbonylamino-2-(4-hydroxy-phenyl)-acetylamino]-methyl}-cyclohexyl)-acetic acid ethyl ester] | – | – | – | 5.05% | 4.6 Fold
